Assay results: article PMC3865801 (Journal of Medicinal Chemistry, 2013)
Read-outs that look alike come from different tables or passages of the source.

Legend:
[1] = Solubility in SPR running buffer; assay type: physicochemical; conditions: HEPES buffered saline running buffer with 5% DMSO; sodium salts, HEPES running buffer containing 5% DMSO
Protocol: Binding experiments with surface immobilized wild-type perforin monomers on a S-series CM5 sensor chip (GE Healthcare Life Sciences) were carried out using a Biacore T200 SPR machine (GE Healthcare Life Sciences). […] The initial and running buffers were made from a 10× stock solution of HEPES buffered saline (HBS). 10× HBS (50 mL) was diluted to 500 mL with water and filtered through a 0.22 μm filter (initial buffer). This initial buffer (380 mL) was added to DMSO (20 mL) to prepare the 5% DMSO running buffer. Stock solutions (2.5 mM) of compound were prepared in 100% DMSO. […] A solvent correction was run before and after the injections to account for differences in DMSO concentrations between buffer and analyte solutions.

[2] = Maximum tolerated dose (MTD) in C57BL/6 mice; conditions: C57BL/6, mouse, in vivo, ip
Protocol: The MTD was determined by single dose or b.i.d. × 3 intraperitoneal administration through a classical dose escalation design in C57BL/6 mice and defined as a dose level that was tolerated by mice (n = 2–3 mice/group) with a body weight loss of <10% and no death or detectable sickness. […] All animal experiments were approved by the Animal Ethics Committee of the University of Auckland.

[3] = Toxicity to KHYG-1 NK cells (Trypan blue exclusion); assay type: cell-based, human; conditions: human, viability after 24 h; for viability at 4 h, 20 µM: 4 h exposure, Trypan blue, ± SEM
Protocol: (§1) The toxicity assay was carried out in exactly the same manner as the killing assay above, but instead of adding the labeled K562 target cells, 100 μL of RPMI 0.1% BSA was added. Cells were incubated for 4 h at 37 °C and then washed ×3 in RPMI + 0.1% BSA. […] Trypan blue was added to each well. Viable (clear) cells and total (clear + blue) cells were counted, and the percentage of viable cells was calculated compared to DMSO treated cell control (% viability).

[4] = target: T1, perforin delivered by primary human natural killer cells to HeLa cells (Homo sapiens, UniProt P14222); assay: Time-lapse microscopy of the cytotoxic immunological synapse (primary NK cells and HeLa targets); assay type: cell-based; conditions: 20 μM, primary human NK cells, HeLa targets
T1 construct: degranulation and the release of perforin into the synaptic cleft; endogenous in cells; host or cells: primary human NK cells from peripheral blood of four donors (HeLa target cells)
T1 sequence (P14222 22-555): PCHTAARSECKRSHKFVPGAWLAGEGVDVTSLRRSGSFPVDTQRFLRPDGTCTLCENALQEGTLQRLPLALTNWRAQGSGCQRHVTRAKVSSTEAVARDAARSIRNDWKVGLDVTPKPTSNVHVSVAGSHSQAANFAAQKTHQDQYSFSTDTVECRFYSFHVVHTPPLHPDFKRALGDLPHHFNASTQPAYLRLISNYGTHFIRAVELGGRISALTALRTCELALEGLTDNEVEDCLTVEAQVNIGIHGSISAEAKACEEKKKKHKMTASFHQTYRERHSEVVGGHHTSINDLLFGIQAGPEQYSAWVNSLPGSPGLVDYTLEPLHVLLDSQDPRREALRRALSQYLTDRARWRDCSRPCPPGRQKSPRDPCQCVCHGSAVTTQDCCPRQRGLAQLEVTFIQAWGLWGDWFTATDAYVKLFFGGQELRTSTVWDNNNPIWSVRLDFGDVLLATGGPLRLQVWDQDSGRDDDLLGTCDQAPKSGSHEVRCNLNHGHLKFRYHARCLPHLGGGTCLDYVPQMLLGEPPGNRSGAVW
Protocol: Time-lapse microscopy and image analysis were performed as described previously.[42] In brief, primary human natural killer cells were isolated from the peripheral blood of four unrelated donors using negative selection, as described in the above reference. […] All experiments were performed at 37 °C/5% CO2.

[5] = tested on: KHYG-1 NK cells; assay: Toxicity to KHYG-1 NK cells (Trypan blue exclusion); assay type: cell-based, human; conditions: 5 μM, viability after 24 h
Protocol: as §1

[6] = intraperitoneal, twice daily over 3 days, read-out: MTD, multiple dosing
[7] = single intraperitoneal dose, mice, read-out: MTD, single dose

CC1c2cc(-c3ccc(/C=C4/NC(=S)NC4=O)s3)ccc2C(=O)N1C (stereo not drawn) [compound 135, (E,Z)-2,3-Dimethyl-5-(5-((5-oxo-2-thioxoimidazolidin-4-ylidene)methyl)thiophen-2-yl)isoindolin-1-one]
solubility [1]: ≤ 2.5 µM
MTD at 96 h [2, 6]: 60 mg/kg
MTD at 96 h [2, 7]: 80 mg/kg
viability at 4 h, 20 µM ([3]; KHYG-1 NK cells): 74 ± 8.3%

O=C1NC(=S)N/C1=C/c1ccc(-c2ccc3c(c2)CCNC3=O)s1 [compound 167]
solubility [1]: ≤ 2.5 µM
MTD at 96 h [2, 6]: 40 mg/kg
MTD at 96 h [2, 7]: 60 mg/kg
synapses in which formation of the perforin pore was blocked [4]: 40%
killer cells that delivered functional perforin to the target ([4]; DMSO control: every cell): 60%
viability at 4 h, 5 µM ([3]; KHYG-1 NK cells, 5 μM): 82 ± 3.6%
viability at 4 h, 20 µM [3]: 38 ± 7.8%
KHYG-1 viability [5]: lack of NK toxicity
